Experimental data taken from ChEMBL document CHEMBL1201862, “PubChem BioAssay data set” (2004).
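Grown in 96-well plates, cells were treated for 48 hours with each compound at five concentrations. Insufficient inhibition: endpoint recorded as highest concentration tested. At the GI50, growth is halved.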 Active and inactive are the calls of the source. Cut-off read from the data, not from the text of the source: active = GI50 up to about 1.1 µM and inactive = higher.

Key:
Test in all cases: DTP human tumour cell line panel, 48 h
[1] = tested on: CCRF-CEM
[2] = tested on: EKVX
[3] = tested on: U-251
[4] = tested on: SNB-19
[5] = tested on: MDA-MB-231
[6] = tested on: UACC-62
[7] = tested on: PC-3
[8] = tested on: NCI-H460
[9] = tested on: Malme-3M
[10] = tested on: MOLT-4
[11] = tested on: NCI-H23
[12] = tested on: SW-620
[13] = tested on: KM12
[14] = tested on: SF-539
[15] = tested on: OVCAR-8
[16] = tested on: NCI-H522
[17] = tested on: MDA-MB-435
[18] = tested on: MCF7

| SMILES | GI50 [1] | GI50 [2] | GI50 [3] | GI50 [4] | GI50 [5] | GI50 [6] | GI50 [7] | GI50 [8] | GI50 [9] | GI50 [10] | GI50 [11] | GI50 [12] | GI50 [13] | GI50 [14] | GI50 [15] | GI50 [16] | GI50 [17] | GI50 [18] |
| --- | --- | --- | --- | --- | --- | --- | --- | --- | --- | --- | --- | --- | --- | --- | --- | --- | --- | --- |
| CCOC(=O)c1c(Br)c(-c2ccc(Br)cc2)c(Br)n1C | 14.7 µM (inactive) | 8.99 µM (inactive) | 18 µM (inactive) | 28.3 µM (inactive) | 13.6 µM (inactive) | 9.27 µM (inactive) | 19.4 µM (inactive) | 28.4 µM (inactive) | 18.5 µM (inactive) | 16.4 µM (inactive) | 22.7 µM (inactive) | 23.2 µM (inactive) | 10.2 µM (inactive) | 21.3 µM (inactive) | 28.8 µM (inactive) | 9.38 µM (inactive) | 3.15 µM (inactive) | 22.8 µM (inactive) |
| c1ccc(NN=C(c2ccccn2)c2ccccn2)nc1 | 0.0224 µM (active) | 0.335 µM (active) | 0.318 µM (active) | 0.598 µM (active) | 0.389 µM (active) | 0.153 µM (active) | 0.191 µM (active) | 0.153 µM (active) | 0.0653 µM (active) |  | 0.0408 µM (active) | 0.141 µM (active) | 0.552 µM (active) | 1.71 µM (inactive) | 0.0384 µM (active) | < 0.01 µM (active) | 0.817 µM (active) | < 0.0245 µM (active) |
| CSCCC(NC(=O)Cc1ccc(C(=O)c2ccccc2)cc1)C(=O)O (stereo not given) | > 100 µM (inactive) | > 100 µM (inactive) | > 100 µM (inactive) | > 100 µM (inactive) | > 100 µM (inactive) | > 100 µM (inactive) | > 100 µM (inactive) | > 100 µM (inactive) | > 100 µM (inactive) | > 100 µM (inactive) | > 100 µM (inactive) | > 100 µM (inactive) | > 100 µM (inactive) | > 100 µM (inactive) | > 100 µM (inactive) | > 100 µM (inactive) | > 100 µM (inactive) | > 100 µM (inactive) |
| CCCCCCCCCCCCCCCCCc1cccc(OCOCCOC)c1CO | > 100 µM (inactive) | > 100 µM (inactive) | > 100 µM (inactive) | > 100 µM (inactive) | > 100 µM (inactive) | > 100 µM (inactive) | > 100 µM (inactive) | > 100 µM (inactive) | > 100 µM (inactive) | > 100 µM (inactive) | > 100 µM (inactive) | > 100 µM (inactive) | > 100 µM (inactive) | > 100 µM (inactive) | > 100 µM (inactive) | > 100 µM (inactive) | > 100 µM (inactive) | > 100 µM (inactive) |
| C=C(Cl)C(C)(Cl)CCC(Cl)C(C)C (stereo not given) | 38.7 µM (inactive) | > 100 µM (inactive) | > 100 µM (inactive) | > 100 µM (inactive) | > 100 µM (inactive) | > 100 µM (inactive) | > 100 µM (inactive) | > 100 µM (inactive) | > 100 µM (inactive) | 36.7 µM (inactive) | > 100 µM (inactive) | 99.5 µM (inactive) | > 100 µM (inactive) | > 100 µM (inactive) |  | 37 µM (inactive) | > 100 µM (inactive) | > 100 µM (inactive) |
| C[Si](C)(c1ccccc1)[C@H]1CCCC=C1CCNC1c2ccccc2CCc2ccccc21 | 1.07 µM (active) | 29.4 µM (inactive) | > 100 µM (inactive) | > 100 µM (inactive) | 89.7 µM (inactive) | 61.4 µM (inactive) | > 100 µM (inactive) | 61.7 µM (inactive) | 80 µM (inactive) | 30 µM (inactive) | 61.5 µM (inactive) | > 100 µM (inactive) | 77.3 µM (inactive) | > 100 µM (inactive) | > 100 µM (inactive) | 50.8 µM (inactive) | 76.2 µM (inactive) | 53 µM (inactive) |
| CC(C)C(OC(=O)c1cc(NC(=S)c2ccccc2)ccc1Cl)C(C)C | 14.9 µM (inactive) | 12.9 µM (inactive) | 19.1 µM (inactive) | 38.4 µM (inactive) | 20.2 µM (inactive) | 11.8 µM (inactive) | 8.53 µM (inactive) | 14.1 µM (inactive) | 20.4 µM (inactive) | 10.1 µM (inactive) | 6.5 µM (inactive) | 21.8 µM (inactive) | 5.69 µM (inactive) | 24.4 µM (inactive) | 22.9 µM (inactive) | 8.51 µM (inactive) | 14.7 µM (inactive) | 17.3 µM (inactive) |
| CCOC1NC(=O)Oc2ccccc21 (stereo not given) | > 100 µM (inactive) | > 100 µM (inactive) | > 100 µM (inactive) | > 100 µM (inactive) | > 100 µM (inactive) | > 100 µM (inactive) | > 100 µM (inactive) | > 100 µM (inactive) | > 100 µM (inactive) | > 100 µM (inactive) | > 100 µM (inactive) | > 100 µM (inactive) | > 100 µM (inactive) | > 100 µM (inactive) | > 100 µM (inactive) | > 100 µM (inactive) | > 100 µM (inactive) | > 100 µM (inactive) |
| Cc1c2ccccc2c(C)n2c1nc1cc3ccccc3cc12 | 1.57 µM (inactive) | 1.64 µM (inactive) | 1.65 µM (inactive) | 1.54 µM (inactive) | 1.36 µM (inactive) | 1.49 µM (inactive) | 1.27 µM (inactive) | 1.05 µM (active) | 1.28 µM (inactive) | 1.32 µM (inactive) | 1.29 µM (inactive) | 1.56 µM (inactive) | 1.32 µM (inactive) | 1.34 µM (inactive) | 1.04 µM (active) | 1.74 µM (inactive) | 1.61 µM (inactive) | 0.321 µM (active) |
| O=C(Nc1noc(-c2ccccc2)n1)c1ccccc1CNc1noc(-c2ccccc2)n1 | > 100 µM (inactive) | 76.7 µM (inactive) | > 100 µM (inactive) | > 100 µM (inactive) | > 100 µM (inactive) | > 100 µM (inactive) | > 100 µM (inactive) | > 100 µM (inactive) | > 100 µM (inactive) | > 100 µM (inactive) | > 100 µM (inactive) | > 100 µM (inactive) | > 100 µM (inactive) | > 100 µM (inactive) | > 100 µM (inactive) | > 100 µM (inactive) | > 100 µM (inactive) | > 100 µM (inactive) |
| O=C(O)COc1cc(-c2ccccc2)nc2cc(F)ccc12 | > 100 µM (inactive) | > 100 µM (inactive) | > 100 µM (inactive) | > 100 µM (inactive) | > 100 µM (inactive) | > 100 µM (inactive) | > 100 µM (inactive) | > 100 µM (inactive) | > 100 µM (inactive) | > 100 µM (inactive) | > 100 µM (inactive) | > 100 µM (inactive) | > 100 µM (inactive) | > 100 µM (inactive) | > 100 µM (inactive) | > 100 µM (inactive) | > 100 µM (inactive) | > 100 µM (inactive) |
| O=[N+]([O-])/C(C(Cl)=C(Cl)Cl)=C(\N1CCCCC1)n1cncn1 | 3.79 µM (inactive) | 15.8 µM (inactive) | 13.3 µM (inactive) | 17.7 µM (inactive) | 14.8 µM (inactive) | 15.2 µM (inactive) | 16.4 µM (inactive) | 26.2 µM (inactive) | 15.9 µM (inactive) | > 24.2 µM (inactive) | 15.2 µM (inactive) | 15.8 µM (inactive) | 19.5 µM (inactive) | 17.1 µM (inactive) | 19.5 µM (inactive) | 15.6 µM (inactive) | 17.9 µM (inactive) | 14.9 µM (inactive) |
| COc1c2c(cc3oc(C)cc(=O)c13)OC(=N)C(C(N)=O)C2CC(=O)c1ccc(N)cc1 (stereo not given) | > 100 µM (inactive) | > 100 µM (inactive) | > 100 µM (inactive) | > 100 µM (inactive) | > 100 µM (inactive) | > 100 µM (inactive) | > 100 µM (inactive) | > 100 µM (inactive) | > 100 µM (inactive) | > 100 µM (inactive) |  | > 100 µM (inactive) | > 100 µM (inactive) | > 100 µM (inactive) | > 100 µM (inactive) | > 100 µM (inactive) | > 100 µM (inactive) | > 100 µM (inactive) |
| Nc1onc2c1Cc1c(noc1N)-c1ccccc1-2 | 42.7 µM (inactive) | 16.3 µM (inactive) | 57.5 µM (inactive) | > 100 µM (inactive) | 35.1 µM (inactive) | 27.4 µM (inactive) | 48.3 µM (inactive) | > 100 µM (inactive) | 41.9 µM (inactive) | 74.8 µM (inactive) | 53.6 µM (inactive) | 57 µM (inactive) | 49.8 µM (inactive) | 96.8 µM (inactive) | 59.6 µM (inactive) | 27.4 µM (inactive) | 25.2 µM (inactive) | 49.7 µM (inactive) |
| c1c2c(cc3c1OCO3)-c1cc3ccc4c(c3c[n+]1CC2)OCO4 [COPTISINE CHLORIDE] | 0.764 µM (active) | 7.71 µM (inactive) | 0.935 µM (active) | 1.22 µM (inactive) | 1.13 µM (inactive) | 0.891 µM (active) | 0.944 µM (active) | 0.53 µM (active) | 0.259 µM (active) | 1.29 µM (inactive) | 0.815 µM (active) | 0.462 µM (active) | 0.925 µM (active) | 0.887 µM (active) | 1.16 µM (inactive) | 0.311 µM (active) | 0.308 µM (active) | 1.24 µM (inactive) |
| CN(C)/C=C(\C(=O)c1ccccc1)n1nc(-c2ccccc2)cc1-c1ccccc1 | > 10 µM (inactive) | > 10 µM (inactive) | > 10 µM (inactive) | > 10 µM (inactive) | > 10 µM (inactive) | > 10 µM (inactive) | > 10 µM (inactive) | > 10 µM (inactive) | > 10 µM (inactive) | > 10 µM (inactive) | > 10 µM (inactive) | > 10 µM (inactive) | > 10 µM (inactive) | > 10 µM (inactive) | > 10 µM (inactive) | > 10 µM (inactive) | > 10 µM (inactive) | > 10 µM (inactive) |
